# Measured values from article PMC9519446, “Discovery of an Orally Active Benzoxaborole Prodrug Effective in the Treatment of Chagas Disease in Non-human Primates” (Nature microbiology, 2022).
# How the values were obtained:
# [1] = Luminex-based multiplex serological assay (IgG to recombinant T. cruzi proteins); format: in vivo, rhesus macaques (Macaca mulatta); conditions: treated animal T19
# Method: (§1) Luminex-based multiplex serological assays were performed as previously described, [17]. For a number of smaller proteins, fusions of up to 2 individual genes are employed for some target proteins in order to expand the array of antibodies being detected while controlling costs and complexity of the assay. (TritrypDb.org identifiers: Tc1= fusion of TcBrA4_0116860 and TcYC6_0028190; Tc2= fusion of TcBrA4_0088420 and TcBrA4_0101960; Tc3 = fusion of TcBrA4_0104680 and TcBrA4_0101980; Tc4= fusion of TcBrA4_0028480 and TcBrA4_0088260; Tc5 = fusion of TcYC6_0100010 and TcBrA4_0074300; Tc7 = fusion of TcYC6_0083710 and TcBrA4_0130080; Tc8 = TcYC6_0037170; Tc11 = TcYC6_0124160; Tc17 = fusion of TcBrA4_0028230 and TcBrA4_0029760; Kn107 = TcCLB.508355.250; G10 = TcCLB.504199.20). Macaque antibody binding to individual beads in the Multiplex assays was detected with donkey anti-human IgG (H+L) conjugated to phycoerythrin (Jackson ImmunoResearch) in a 1:200 dilution.
# [2] = test system: recombinant T. cruzi proteins; test: as above; format: in vivo, rhesus macaques (Macaca mulatta); conditions: for IgG response to G10 (36) / IgG response to Kn107 (20) / IgG response to Tc1 (3) / IgG response to Tc2 (6) / IgG response to Tc3 (11) / IgG response to Tc4 (16) / IgG response to Tc5 (22) / IgG response to Tc7 (27) / IgG response to Tc8 (31) / IgG response to Tc11 (35) / IgG response to Tc17 (51) / IgG response to Tc lysate (50): treated animal T19
# Method: as §1
structure (smiles),measurement,setting,value
Cc1c(C(=O)N[C@H](C(=O)OCC2CCOCC2)C(C)C)ccc2c1B(O)OC2 [AN15368],IgG response to GFP (58),[1]; 2017-09-13,58.5
same,IgG response to GFP (58),[1]; 2017-11-17,-25.0
same,IgG response to GFP (58),[1]; 2017-12-06,27.0
same,IgG response to GFP (58),[1]; 2017-12-20,-24.3
same,IgG response to GFP (58),[1]; 2018-01-09,103.5
same,IgG response to GFP (58),[1]; 2018-01-23,-17.8
same,IgG response to GFP (58),[1]; 2018-02-27,-110.5
same,IgG response to GFP (58),[1]; 2018-03-28,-15.8
same,IgG response to GFP (58),[1]; 2019-02-19,-19.0
same,IgG response to GFP (58),[1]; 2020-06-18,-50.3
same,IgG response to GFP (58),[1]; 2021-05-20,-25.5
same,IgG levels to recombinant T. cruzi proteins over time,"[2]; treated NHP, up to 42 months after end of treatment",Declining IgG levels
same,IgG response to G10 (36),[2]; 2017-09-13,45.3
same,IgG response to Kn107 (20),[2]; 2017-09-13,5.3
same,IgG response to Tc1 (3),[2]; 2017-09-13,4561.8
same,IgG response to Tc2 (6),[2]; 2017-09-13,786.0
same,IgG response to Tc3 (11),[2]; 2017-09-13,-22.8
same,IgG response to Tc4 (16),[2]; 2017-09-13,35.3
same,IgG response to Tc5 (22),[2]; 2017-09-13,-9.5
same,IgG response to Tc7 (27),[2]; 2017-09-13,2389.8
same,IgG response to Tc8 (31),[2]; 2017-09-13,14652.0
same,IgG response to Tc11 (35),[2]; 2017-09-13,292.3
same,IgG response to Tc17 (51),[2]; 2017-09-13,1360.0
same,IgG response to Tc lysate (50),[2]; 2017-09-13,2591.5
same,IgG response to G10 (36),[2]; 2017-11-17,2.8
same,IgG response to Kn107 (20),[2]; 2017-11-17,7.0
same,IgG response to Tc1 (3),[2]; 2017-11-17,2671.5
same,IgG response to Tc2 (6),[2]; 2017-11-17,364.3
same,IgG response to Tc3 (11),[2]; 2017-11-17,25.0
same,IgG response to Tc4 (16),[2]; 2017-11-17,39.3
same,IgG response to Tc5 (22),[2]; 2017-11-17,-11.5
same,IgG response to Tc7 (27),[2]; 2017-11-17,1520.3
same,IgG response to Tc8 (31),[2]; 2017-11-17,12143.5
same,IgG response to Tc11 (35),[2]; 2017-11-17,154.0
same,IgG response to Tc17 (51),[2]; 2017-11-17,1317.5
same,IgG response to Tc lysate (50),[2]; 2017-11-17,1854.3
same,IgG response to G10 (36),[2]; 2017-12-06,38.0
same,IgG response to Kn107 (20),[2]; 2017-12-06,21.8
same,IgG response to Tc1 (3),[2]; 2017-12-06,2769.0
same,IgG response to Tc2 (6),[2]; 2017-12-06,433.8
same,IgG response to Tc3 (11),[2]; 2017-12-06,-25.8
same,IgG response to Tc4 (16),[2]; 2017-12-06,11.8
same,IgG response to Tc5 (22),[2]; 2017-12-06,33.5
same,IgG response to Tc7 (27),[2]; 2017-12-06,1546.5
same,IgG response to Tc8 (31),[2]; 2017-12-06,12008.3
same,IgG response to Tc11 (35),[2]; 2017-12-06,211.8
same,IgG response to Tc17 (51),[2]; 2017-12-06,1420.3
same,IgG response to Tc lysate (50),[2]; 2017-12-06,1538.8
same,IgG response to G10 (36),[2]; 2017-12-20,-55.8
same,IgG response to Kn107 (20),[2]; 2017-12-20,36.8
same,IgG response to Tc1 (3),[2]; 2017-12-20,2355.8
same,IgG response to Tc2 (6),[2]; 2017-12-20,410.8
same,IgG response to Tc3 (11),[2]; 2017-12-20,34.8
same,IgG response to Tc4 (16),[2]; 2017-12-20,99.0
same,IgG response to Tc5 (22),[2]; 2017-12-20,41.0
same,IgG response to Tc7 (27),[2]; 2017-12-20,1365.3
same,IgG response to Tc8 (31),[2]; 2017-12-20,9274.0
same,IgG response to Tc11 (35),[2]; 2017-12-20,116.0
same,IgG response to Tc17 (51),[2]; 2017-12-20,1322.5
same,IgG response to Tc lysate (50),[2]; 2017-12-20,1584.0
same,IgG response to G10 (36),[2]; 2018-01-09,36.5
same,IgG response to Kn107 (20),[2]; 2018-01-09,76.0
same,IgG response to Tc1 (3),[2]; 2018-01-09,3757.5
same,IgG response to Tc2 (6),[2]; 2018-01-09,565.5
same,IgG response to Tc3 (11),[2]; 2018-01-09,64.8
same,IgG response to Tc4 (16),[2]; 2018-01-09,81.0
same,IgG response to Tc5 (22),[2]; 2018-01-09,-22.0
same,IgG response to Tc7 (27),[2]; 2018-01-09,1442.3
same,IgG response to Tc8 (31),[2]; 2018-01-09,13021.3
same,IgG response to Tc11 (35),[2]; 2018-01-09,357.0
same,IgG response to Tc17 (51),[2]; 2018-01-09,2026.0
same,IgG response to Tc lysate (50),[2]; 2018-01-09,2194.3
